The source of these data is patent US20250049867A1, “[…] HERPESVIRUSES” (VIROGIN BIOTECH CANADA LTD., priority 2021, published 2025).

Values after ≈ are worked out from the molar mass of the structure shown.

Data set [1] deals with GL261 cells modified to express mNectin1. As to the kind of experiment: Orthotopic mNectin1-expressing GL261 glioblastoma model, intratumoral virus injection, survival. To be noted: co-expressed with the mIL12 and anti-PD1 payload; GL261-luc-N1. Type of data set: in vivo, mice.
Procedure: In vivo experiments were conducted to test the efficacy of the HSV oncolytic virus encoding different payload molecules against glioblastoma. Two orthotopic mouse models were used. One orthotopic model used CT2A cells modified to express FLuc which enables imaging post-implantation. The other orthotopic model used GL261 cells modified to express mNectin1, which enabled HSV infection, and also to express FLuc which enabled imaging post-implantation. Cells were implanted intracranially in 12-week-old C57B16 mice by stereotactic injection, and one week later the tumors were injected with the indicated viruses.
The control virus contained only the BAC sequences but not the payload sequence. In the first set of experiments, viruses encoding mouse IL-12 (mIL-12) and/or anti-PD-1 antibody and the control virus were each injected intratumorally at the indicated time and dosage according to FIG. 22A and FIG. 22B.
For the combination screens, GL261-luc-N1 cells were intracranially implanted in 12-week-old C57B16 mice, then 1 week later the tumors were injected with the combination of viruses encoding various candidate payloads.
GL261-luc-N1 or CT2A-luc-N1 cells were intracranially implanted in 12-week-old C57B16 mice, then 1 week later the tumors were injected with the indicated viruses.
Data set [2] deals with ONCR-1010 with UL30-L774F mutation (ONCR-1012). Description: Acyclovir sensitivity plaque titer assay on Vero cell monolayers. It counts as cell-based, HSV. To be noted: 96 h, 90% reduction in plaque titer, 4 days. Here is the method:
(§1) Acyclovir can be used as a prodrug in HSV-TK mediated suicide gene therapy of cancer, which requires its phosphorylation by HSV thymidine kinase (TK). Virus sensitivity to acyclovir was assayed by adding increasing concentrations of the drug to intact Vero cell monolayers and then infecting with a standard dose of virus. The Vero cell monolayers were incubated for 4 days to allow for virus growth, and then the virus was harvested and the corresponding lysates assayed for virus by plaque assay. The IC90 was calculated as the amount of acyclovir that produced a 90% reduction in plaque titer compared to the untreated control.

Another data set has as its system ONCR-1010. The description is as above. Type of data set: cell-based, HSV. The settings on record: 96 h, 90% reduction in plaque titer, 4 days. Here is the method:
as §1

For data set [3] the following is noted: dosed orally; cited from earlier work.

The IC90 is the concentration needed for an effect of 90%.

On to “15-hydroxyprostaglandin dehydrogenase [PGDH, 15-hydroxyprostaglandin dehydrogenase [NAD(+)]]”, for which the “efficacy in combination screen (survival)” value in data set [1] is “improved efficacy”.
As to `Nc1nc2c(ncn2COCCO)c(=O)[nH]1` [acyclovir], the values for the IC90 (in data set [2]; with ONCR-1010) were 1.84 µg/mL (≈ 8.17 µM) and 0.43 µg/mL (≈ 1.91 µM), respectively. Also, in data set [3], the “bioavailability of acyclovir in the CNS” value is “about 1.76 ug/ml”.
